The source of these data is US11207325B2, “Triazolopyrimidine compounds and uses thereof” (Novartis AG, priority 2014, dated 2021).

SMILES strings stand for the structures. pIC50: −log10 of the molar value.

For assay [1], the system named is H3K27 methylation in G401 cell. Put plainly: ELISA (H3K27 methylation) assay. The following applies: Homo sapiens, G-401; ELISA Qualified assay (H3K27 methylation); read-out: (c) IC50 (μM), ELISA Qualified. It is filed as cell-based. An excerpt: ELISA (H3K27 Methylation) Assay
Background: ELISA stands for enzyme-linked immunosorbent assay.

Assay [2] concerns B cell lymphoma cell KARPAS422. In words: Analysis of cell proliferation. It is filed as cell-based. To be noted: Homo sapiens, KARPAS-422, 336 h; B cell lymphoma cell KARPAS422 after 14 days of treatment; read-out: antiproliferative activities (IC50 values). The method, then: Analysis of Cell Proliferation
B cell lymphoma cell KARPAS422 was cultured using standard cell culture conditions in RPMI-1640 (Invitrogen, cat #11875) supplemented with 15% FBS (Invitrogen, cat #10099-141) in humidified incubator at 37° C., 5% CO2. To assess the effect of PRC2 inhibition on cell proliferation, exponentially growing cells were seeded at a density of 1×10^5 cells/mL in 12-well plate (Corning, cat #CLS3513). After cell seeding, a compound of the present disclosure was added to the cell media (in concentrations ranging from 0 to 100 μM, 3× dilution series). Viable cell numbers were determined every 3-4 days for up to 14 days using Vi-CELL (Beckman Coulter). On days of cell counting, fresh growth media and compound were replenished and cells split back to a density of 1×10^5 cells/mL. Total cell number is expressed as split-adjusted viable cells per mL. The dose response curves and IC50 values were generated using Prism.

A word on the IC50: it is the midpoint of a concentration-inhibition curve. Broadly, the pIC50 is −log10 of the IC50, conventionally taken in molar units. On to `Cc1cc(-c2cnc(NCc3c(F)ccc4c3CCO4)n3cnnc23)n(C)n1` [Example 1, 8-(1,3-dimethyl-1H-pyrazol-5-yl)-N-((5-fluoro-2,3-dihydrobenzofuran-4-yl)methyl)-[1,2,4]triazolo[4,3-c]pyrimidin-5-amine], for which, in assay [1], the IC50 stood at 0.0009 µM. Further, the pIC50 in assay [2] is 9.40.

With `Cc1ncccc1-c1cnc(NCc2c(F)ccc3c2CCO3)n2cnnc12` [Example 2, N-((5-fluoro-2,3-dihydrobenzofuran-4-yl)methyl)-8-(2-methylpyridin-3-yl)-[1,2,4]triazolo[4,3-c]pyrimidin-5-amine], the pIC50 in assay [2] is 8.52.

On to `Cc1ncc(-c2cnc(NCc3c(F)ccc4c3CCO4)n3cnnc23)c(C)n1` [Example 3, 8-(2,4-Dimethylpyrimidin-5-yl)-N-((5-fluoro-2,3-dihydrobenzofuran-4-yl)methyl)-[1,2,4]triazolo[4,3-c]pyrimidin-5-amine], for which the IC50 in assay [1] amounted to 0.0034 µM. In assay [2], the pIC50 is 9.15.

Turning to `Cc1nn(C(C)C)cc1-c1cnc(NCc2c(F)ccc3c2CCO3)n2cnnc12` [Example 4, N-((5-Fluoro-2,3-dihydrobenzofuran-4-yl)methyl)-8-(1-isopropyl-3-methyl-1H-pyrazol-4-yl)-[1,2,4]triazolo[4,3-c]pyrimidin-5-amine], the IC50 in assay [1] is 0.0021 µM. The negative-log IC50 (pIC50) in assay [2] is 9.52.

Consider `COc1cc(C)c(-c2cnc(NCc3c(F)ccc4c3CCO4)n3cnnc23)cn1` [Example 5, N-((5-fluoro-2,3-dihydrobenzofuran-4-yl)methyl)-8-(6-methoxy-4-methylpyridin-3-yl)-[1,2,4]triazolo[4,3-c]pyrimidin-5-amine], for which the IC50 in assay [1] worked out at 0.0029 µM. Moreover, the pIC50 in assay [2] was 9.10.

On to `Cc1nc(C2CC2)ccc1-c1cnc(NCc2c(F)ccc3c2CCO3)n2cnnc12` [Example 6, 8-(6-Cyclopropyl-2-methylpyridin-3-yl)-N-((5-fluoro-2,3-dihydrobenzofuran-4-yl)methyl)-[1,2,4]triazolo[4,3-c]pyrimidin-5-amine], for which the 50% inhibitory concentration (IC50) in assay [1] worked out at 0.0038 µM. Moreover, in assay [2], the pIC50 is 9.70.

For the compound `OCc1ncccc1-c1cnc(NCc2c(F)ccc3c2CCO3)n2cnnc12` [Example 7, (3-(5-(((5-fluoro-2,3-dihydrobenzofuran-4-yl)methyl)amino)-[1,2,4]triazolo[4,3-c]pyrimidin-8-yl)pyridin-2-yl)methanol], the IC50 in assay [1] turned out to be 0.0052 µM. In addition, the pIC50 in assay [2] was 8.52.

As to `Cc1nc(C2CC2)ncc1-c1cnc(NCc2c(F)ccc3c2CCO3)n2cnnc12` [Example 8, 8-(2-cyclopropyl-4-methylpyrimidin-5-yl)-N-((5-fluoro-2,3-dihydrobenzofuran-4-yl)methyl)-[1,2,4]triazolo[4,3-c]pyrimidin-5-amine], the IC50 in assay [1] stood at 0.0029 µM. For the same compound, in assay [2], the pIC50 was 9.22.

On to `Cc1nc(OC(C)C)ncc1-c1cnc(NCc2c(F)ccc3c2CCO3)n2cnnc12` [Example 9, N-((5-fluoro-2,3-dihydrobenzofuran-4-yl)methyl)-8-(2-isopropoxy-4-methylpyrimidin-5-yl)-[1,2,4]triazolo[4,3-c]pyrimidin-5-amine], for which the IC50 in assay [1] worked out at 0.0035 µM. For the same compound, in assay [2], the pIC50 is 9.22.

Consider `[O-][n+]1cccc(-c2cnc(NCc3c(F)ccc4c3CCO4)n3cnnc23)c1` [Example 10, 3-(5-(((5-fluoro-2,3-dihydrobenzofuran-4-yl)methyl)amino)-[1,2,4]triazolo[4,3-c]pyrimidin-8-yl)pyridine 1-oxide], for which, in assay [1], the IC50 came to 0.001 µM. Also, the pIC50 in assay [2] is 7.76.

In the case of `Cc1ncccc1-c1cnc(NCc2c(F)ccc3occc23)n2cnnc12` [Example 207, N-((5-fluorobenzofuran-4-yl)methyl)-8-(2-methylpyridin-3-yl)-[1,2,4]triazolo[4,3-c]pyrimidin-5-amine], in assay [1], the IC50 came to 0.0036 µM. Also, the pIC50 in assay [2] was 9.00.

Consider `Fc1ccc2c(c1CNc1ncc(F)c3nncn13)CCO2` [Example 235, 8-fluoro-N-((5-fluoro-2,3-dihydrobenzofuran-4-yl)methyl)-[1,2,4]triazolo[4,3-c]pyrimidin-5-amine], for which the IC50 in assay [1] was 0.192 µM.

With `Cc1cn(-c2cnc(NCc3c(F)ccc4c3CCO4)n3cnnc23)c(C)n1` [Example 236, 8-(2,4-dimethyl-1H-imidazol-1-yl)-N-((5-fluoro-2,3-dihydrobenzofuran-4-yl)methyl)-[1,2,4]triazolo[4,3-c]pyrimidin-5-amine], the IC50 in assay [1] was 0.0076 µM.

Take `Fc1ccc2c(c1CNc1ncc(-n3cccn3)c3nncn13)CCO2` [Example 237, N-((5-fluoro-2,3-dihydrobenzofuran-4-yl)methyl)-8-(1H-pyrazol-1-yl)-[1,2,4]triazolo[4,3-c]pyrimidin-5-amine]: the IC50 in assay [1] turned out to be 0.0101 µM.

On to `Cc1ncn(-c2cnc(NCc3c(F)ccc4c3CCO4)n3cnnc23)n1` [Example 238, N-((5-fluoro-2,3-dihydrobenzofuran-4-yl)methyl)-8-(3-methyl-1H-1,2,4-triazol-1-yl)-[1,2,4]triazolo[4,3-c]pyrimidin-5-amine], for which the IC50 in assay [1] was 0.0179 µM.

Take `Cc1cnn(-c2cnc(NCc3c(F)ccc4c3CCO4)n3cnnc23)c1` [Example 239, N-((5-fluoro-2,3-dihydrobenzofuran-4-yl)methyl)-8-(4-methyl-1H-pyrazol-1-yl)-[1,2,4]triazolo[4,3-c]pyrimidin-5-amine]: the IC50 in assay [1] is 0.0382 µM.

Take `Fc1ccc2c(c1CNc1ncc(-n3ccnc3)c3nncn13)CCO2` [Example 240, N-((5-fluoro-2,3-dihydrobenzofuran-4-yl)methyl)-8-(1H-imidazol-1-yl)-[1,2,4]triazolo[4,3-c]pyrimidin-5-amine]: the IC50 in assay [1] was 0.0014 µM.

For `Fc1ccc2c(c1CNc1ncc(-n3cncn3)c3nncn13)CCO2` [Example 241, N-((5-fluoro-2,3-dihydrobenzofuran-4-yl)methyl)-8-(1H-1,2,4-triazol-1-yl)-[1,2,4]triazolo[4,3-c]pyrimidin-5-amine], in assay [1], the IC50 amounted to 0.0284 µM.

As for `Cc1ncccc1-c1cnc(NCc2c(F)ccc3c2C(O)CO3)n2cnnc12` (stereo not shown) [Example 242, 5-fluoro-4-(((8-(2-methylpyridin-3-yl)-[1,2,4]triazolo[4,3-c]pyrimidin-5-yl)amino)methyl)-2,3-dihydrobenzofuran-3-ol], the IC50 in assay [1] turned out to be 0.0634 µM.

As for `OCc1ncccc1-c1cnc(NCc2c(F)ccc3c2C(O)CO3)n2cnnc12` (stereo not shown) [Example 243, 5-fluoro-4-(((8-(2-(hydroxymethyl)pyridin-3-yl)-[1,2,4]triazolo[4,3-c]pyrimidin-5-yl)amino)methyl)-2,3-dihydrobenzofuran-3-ol], the half-inhibitory concentration (IC50) in assay [1] turned out to be 0.0409 µM.

For `Cc1c(-c2cnc(NCc3c(F)ccc4c3C(O)CO4)n3cnnc23)ccc[n+]1[O-]` (stereo not shown) [Example 244, 3-(5-(((5-fluoro-3-hydroxy-2,3-dihydrobenzofuran-4-yl)methyl)amino)-[1,2,4]triazolo[4,3-c]pyrimidin-8-yl)-2-methylpyridine 1-oxide], the IC50 in assay [1] amounted to 0.241 µM.
